The source of these data is patent US4260629A, “Treating pain with acetaminophen and 1,4-dimethyl-5-p-chlorobenzoyl-pyrrole-2-acetic acid” (E. I. Du Pont de Nemours and Company, priority 1979, dated 1981).

Assay [1] has as its system phenyl-p-benzoquinone induced writhing. The assay is described as follows: mouse antiphenylquinone writhing test (prevention of phenyl-p-benzoquinone induced writhing; oral analgesic activity). Type of assay: in vivo, mouse (male CF1). How it is done:
Male CF1 mice obtained from Charles River Breeding Laboratories, fasted for 16-22 hours, and weighing 18-22 g at the time of testing are used throughout. All mice are dosed orally with acetaminophen and/or zomepirac (calculated as the sodium salt) dissolved completely in distilled water containing as vehicle 2% by volume of Tween 80®, a pharmacological dispersant manufactured by Fisher Scientific Company and containing 100% polysorbate 80. A dosing volume of 20 ml/kg is used. All doses are coded and the test is performed under a code not known to the observer.
A standard procedure for detecting and comparing the analgesic activity of different classes of analgesia drugs for which there is a good correlation with human efficacy is the prevention of phenyl-p-benzoquinone induced writhing in mice (H. Blumberg et al.; Proc. Soc. Exp. Biol. Med. 118, 763-766, 1965).
Mice, intubated with various doses of sodium zomepirac, acetaminophen, combined doses of sodium zomepirac and acetaminophen, or vehicle, are injected intraperitoneally with a challenge dose of phenyl-p-benzoquinone.The phenyl-p-benzoquinone is prepared as a 0.1 mg/ml solution in 5% by volume of ethanol in water; the writhing dose is 1.25 mg/kg injected at the rate of 0.25 ml/20 g. For scoring purposes a "writhe" is indicated by whole body stretching or contraction of the abdomen: mice are observed 10 minutes for the presence or absence of writhing beginning 5 minutes after receiving the phenyl-p-benzoquinone dose. Each mouse is used only once, then discarded.
In order to study the interaction between zomepirac and acetaminophen, precise dosage ratios of sodium zomepirac and acetaminophen are selected. Four to five coded doses of each selected combination are studied for analgesic effectiveness at 10 minutes using an experimental design which permits complete randomization of the separate dosage forms tested. Altogether 25 separate dosage forms are used and each form is represented in each experimental session. The experiments are continued by running experimental sessions with an equal number of mice being tested for each dosage group until the total number, N, of mice tested per group is 20.
In the drawing, the diagonal line joining the ED50 values of the two drugs given separately represents simple additivity of drug effects. The dashed lines on each side of the diagonal line give the 95% confidence limits for this line of additivity. […] The 3 diagonal lines radiating from the origin represent the dose ratios of sodium zomepirac to acetaminophen used in mice receiving the combined drug dosages.
On the technique in general: An intraperitoneal irritant provokes the stretching counted in writhing tests.

Assay [2] has the same test system. The assay is described as above. Type of assay: in vivo, mouse (male CF1). To be noted: 10 min, preliminary experiment, 95% confidence limits 0.80-1.69 (sodium zomepirac), 166-281 (acetaminophen).

What is called ED50 is the dose at which the effect has come halfway, by size or by number of responders. In the case of `CC(=O)Nc1ccc(O)cc1` [Acetaminophen, N-(4-hydroxyphenyl)acetamide], the “ED50 at 10 Min. (95% Confidence limits), Acetaminophen (alone or as component of the combination)” value in assay [1] (10 min, N = 20 mice/dose, 95% limits on following lines: alone 162-309, 1:62.1 22.6-40.6, 1:186 37.7-68.5, 1:559 62.6-111) is given as 224 mg/kg. The “% MICE BLOCKED” value in assay [1] (sodium zomepirac 0 + acetaminophen 54 mg/kg) is recorded as 10%; in assay [1] (sodium zomepirac 0 + acetaminophen 108 mg/kg) it was 30%; in assay [1] (sodium zomepirac 0 + acetaminophen 216 mg/kg) it was 45%; in assay [1] (sodium zomepirac 0 + acetaminophen 432 mg/kg) it was 75%. For the same compound, in assay [2], it took a dose of 216 mg/kg to reach the 50% effect level (ED50).

Turning to `Cc1cc(CC(=O)O)n(C)c1C(=O)c1ccc(Cl)cc1` [Sodium Zomepirac], the “ED50 at 10 Min. (95% Confidence limits), Sodium Zomepirac (alone or as component of the combination)” value in assay [1] (10 min, N = 20 mice/dose, 95% limits on following lines: alone 1.09-2.12, 1:62.1 0.367-0.649, 1:186 0.204-0.365, 1:559 0.114-0.195) was 1.52 mg/kg. Besides, the “% MICE BLOCKED” value in assay [1] (sodium zomepirac 0.29 + acetaminophen 0 mg/kg) is given as 5%; in assay [1] (sodium zomepirac 0.58 + acetaminophen 0 mg/kg), 20%; in assay [1] (sodium zomepirac 1.16 + acetaminophen 0 mg/kg), 35%; in assay [1] (sodium zomepirac 2.32 + acetaminophen 0 mg/kg), 60%; in assay [1] (sodium zomepirac 4.64 + acetaminophen 0 mg/kg) it was 95%. In addition, the 50% effect level in assay [2] (ED50) was put at a dose of 1.16 mg/kg.
